Several values for one entry are separate records, joined by “and”; a condition that tells them apart may be missing. Identical values can stand only once. Values belong to the molecule of their own block, whether it stands above or below them.
What was measured:
[1] = Biodistribution studies in NMRI mice; assay type: in vivo; conditions: i.v.; for Percentage of ID, blood: blood mass assumed 7% of body mass
Description: The biodistribution studies were performed in wild-type NMRI mice with body weights ranging from 30 to 40 g. Mice were intravenously injected with 0.1 MBq of ^18F]-(3) or ^18F]-(5) and 5.5 MBq of ^11C]-(4) or ^11C]-(6) under anesthesia (2% isoflurane in O2 at a flow rate of 1 L/min). The animals were killed by decapitation at 2 min or 60 min p.i. (n = 4/time point for ^18F]-(3), ^11C]-(4), and ^11C]-(6); n = 6 for ^18F]-(5)). Blood was collected, and all major organs were dissected and collected in tarred tubes and were weighed. The radioactivity in each organ was counted using an automated gamma counter, corrected for background radioactivity and expressed as follows: percentage of the injected dose (% ID) or as standardized uptake value (SUV) (SUV = (Counts in tissue per gram of tissue) / (Injected counts per total body mass (g)). For the calculation of total radioactivity in the blood, blood mass was assumed to be 7% of the body mass.

[2] = target: hCA II (Homo sapiens, UniProt P00918); assay: CA-catalyzed CO2 hydration, stopped-flow inhibition assay; assay type: biochemical; conditions: human (cloned) isozyme; CO2 hydration reaction at 20°C; n = 3
Description: (§1) Phenol red (0.2 mM) was used as indicator, working at the absorbance maximum of 557 nm, with 10 mM Hepes as buffer (pH 7.5) and 0.1 M Na2SO4 (for maintaining constant ionic strength) at 25°C following the CA-catalyzed CO2 hydration reaction for a period of 10 to 100 s (the uncatalyzed reaction needs around 60 to 100 s under assay conditions, whereas the catalyzed reactions take around 6 to 10 s). The CO2 concentrations ranged from 1.7 to 17 mM for the determination of kinetic parameters. Each compound was tested in the concentration range between 0.01 nM to 100 μM. The uncatalyzed rates were determined in the same manner and subtracted from the total observed rates. Stock solutions of the compounds (0.1 mM) were prepared in distilled water with 10% to 20% (v/v) DMSO (which is non-inhibitory at these concentrations), and dilutions up to 0.01 nM were made with distilled water. Inhibitor and enzyme solutions were preincubated together for 15 min at room temperature prior to the assay, in order to allow the formation of enzyme-inhibitor complex. The inhibition constants were obtained by nonlinear least square methods using PRISM 3 (GraphPad Software, La Jolla, CA, USA), and they represent the mean from at least three different determinations.

[3] = Dynamic micro-PET scan in rats; assay type: in vivo, Wistar rat
Description: PET images were acquired on a FOCUS 220 tomograph (Siemens/Concorde Microsystems, Knoxville, TN, USA). During all scan sessions, rats were anesthetized (2.5% isoflurane in O2 at a flow rate of 1 L/min) and scanned in prone position. [^18F]-(5) (37 MBq) was administered via the tail vein, and a 1-h dynamic scan was acquired. The images were acquired in list mode and binned in sinograms using a 21-dynamic frame protocol (4 × 15, 4 × 60, 5 × 180, 8 × 300 s). Reconstruction was performed with the Focus 220 software (using Fourier rebinning, followed by two-dimensional (2D) OSEM algorithm), and data were analyzed using PMOD (version 2.65; PMOD, Zurich, Switzerland). The radioactivity concentration in the heart region was expressed as SUVs as a function of time after injection of the radiotracer.

[4] = Log D (1-octanol/phosphate buffer pH 7.4), shake flask method; assay type: physicochemical
Description: Determination of the distribution coefficient (log D1-octanol/phosphate buffer pH 7.4), was carried out by a shake flask method. An aliquot (25 μL) of the tracer agents ^18F]-(3), ^11C]-(4), ^18F]-(5), or ^11C]-(6) (185 to 555 kBq/mL) was added to a polypropylene tube (5 mL; Sarstedt, Nümbrecht, Germany) containing 2 mL of 0.025 M sodium phosphate buffer pH 7.4 and 2 mL of 1-octanol. The tube was vortexed for 2 min at room temperature followed by centrifugation at 3,000 rpm for 10 min (Eppendorf centrifuge 5810, Eppendorf, Westbury, NY, USA). Aliquots of 50 μL of the 1-octanol phase and 500 μL of the phosphate buffer phase were pipetted into separate tared Eppendorf tubes with adequate care to avoid cross contamination between the two phases. The samples were weighed, and radioactivity was quantified using an automated gamma counter. The experiments were carried out sixfold.

[5] = target: hCA I (Homo sapiens, UniProt P00915); assay: CA-catalyzed CO2 hydration, stopped-flow inhibition assay; assay type: biochemical; conditions: human (cloned) isozyme; CO2 hydration reaction at 20°C; n = 3
Description: as §1

Chain of hCA I (P00915 whole entry): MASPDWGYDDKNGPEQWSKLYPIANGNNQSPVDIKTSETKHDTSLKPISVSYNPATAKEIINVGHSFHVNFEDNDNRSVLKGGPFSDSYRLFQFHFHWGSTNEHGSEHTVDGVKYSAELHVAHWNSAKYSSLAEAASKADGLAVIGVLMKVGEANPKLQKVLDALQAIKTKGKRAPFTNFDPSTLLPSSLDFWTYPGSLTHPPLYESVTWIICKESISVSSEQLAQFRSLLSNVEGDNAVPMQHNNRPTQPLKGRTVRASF

Percentage of ID, brain ([1]; 2 min p.i.): 0.2 ± 0.0 % ID
Percentage of ID, carcass ([1]; 2 min p.i.): 18.10 ± 2.32 % ID
Percentage of ID, heart ([1]; 2 min p.i.): 0.8 ± 0.0 % ID
Percentage of ID, intestines ([1]; 2 min p.i.): 5.9 ± 0.8 % ID
Percentage of ID, kidneys ([1]; 2 min p.i.): 10.6 ± 0.8 % ID
Percentage of ID, liver ([1]; 2 min p.i.): 15.8 ± 1.5 % ID
Percentage of ID, lungs ([1]; 2 min p.i.): 2.3 ± 0.5 % ID
Percentage of ID, spleen + pancreas ([1]; 2 min p.i.): 1.3 ± 0.2 % ID
Percentage of ID, stomach ([1]; 2 min p.i.): 0.7 ± 0.1 % ID
Percentage of ID, urine ([1]; 2 min p.i.): 0.2 ± 0.1 % ID
SUV, blood ([1]; 2 min p.i.): 10.1 ± 0.6
SUV, brain ([1]; 2 min p.i.): 0.2 ± 0.0
SUV, heart ([1]; 2 min p.i.): 2.3 ± 1.3
SUV, kidneys ([1]; 2 min p.i.): 5.6 ± 0.6
SUV, liver ([1]; 2 min p.i.): 3.2 ± 0.2
SUV, lungs ([1]; 2 min p.i.): 3.5 ± 1.0
SUV, spleen ([1]; 2 min p.i.): 1.6 ± 0.2
Percentage of ID, blood ([1]; 2 min p.i.): 71.0 ± 4.3 % ID
Percentage of ID, brain ([1]; 60 min p.i.): 0.2 ± 0.1 % ID
Percentage of ID, carcass ([1]; 60 min p.i.): 31.35 ± 3.67 % ID
Percentage of ID, heart ([1]; 60 min p.i.): 0.2 ± 0.2 % ID
Percentage of ID, intestines ([1]; 60 min p.i.): 18.6 ± 1.0 % ID
Percentage of ID, kidneys ([1]; 60 min p.i.): 2.8 ± 0.1 % ID
Percentage of ID, liver ([1]; 60 min p.i.): 8.3 ± 1.2 % ID
Percentage of ID, lungs ([1]; 60 min p.i.): 0.7 ± 0.3 % ID
Percentage of ID, spleen + pancreas ([1]; 60 min p.i.): 0.9 ± 0.3 % ID
Percentage of ID, stomach ([1]; 60 min p.i.): 1.9 ± 1.3 % ID
SUV, blood ([1]; 60 min p.i.): 4.5 ± 0.3
SUV, brain ([1]; 60 min p.i.): 0.1 ± 0.0
SUV, heart ([1]; 60 min p.i.): 0.5 ± 0.4
SUV, kidneys ([1]; 60 min p.i.): 1.6 ± 0.1
SUV, liver ([1]; 60 min p.i.): 1.7 ± 0.3
SUV, lungs ([1]; 60 min p.i.): 1.1 ± 0.4
SUV, spleen ([1]; 60 min p.i.): 1.1 ± 0.3
Percentage of ID, blood ([1]; 60 min p.i.): 32 % ID and 31.7 ± 2.1 % ID
Ki [2]: 8 nM
SMILES: NS(=O)(=O)c1ccc(CCNC(=O)c2ccc(OCC[18F])cc2)cc1 [[^18F]-(3), 4-(2-[^18F]fluoroethoxy)benzoyl aminoethylbenzenesulfonamide]

Average SUV ratio heart-to-kidney ([3]; micro-PET): 2.5
Average SUV ratio heart-to-liver ([3]; micro-PET): 4
Average SUV ratio heart-to-spleen ([3]; micro-PET): 2.3
Bone uptake (in vivo defluorination) ([3]; micro-PET): no bone uptake was observed
Heart region SUV at 60 min relative to the 2-min value ([3]; micro-PET): 75%
SUV, heart ([3]; micro-PET time activity curves, 37 MBq i.v.): 2.5
Percentage of ID, brain ([1]; 2 min p.i.): 0.3 ± 0.0 % ID
Percentage of ID, carcass ([1]; 2 min p.i.): 18.8 ± 1.6 % ID
Percentage of ID, heart ([1]; 2 min p.i.): 0.6 ± 0.1 % ID
Percentage of ID, intestines ([1]; 2 min p.i.): 2.9 ± 0.4 % ID
Percentage of ID, kidneys ([1]; 2 min p.i.): 4.1 ± 0.8 % ID
Percentage of ID, liver ([1]; 2 min p.i.): 6.0 ± 1.1 % ID
Percentage of ID, lungs ([1]; 2 min p.i.): 7.3 ± 3.9 % ID
Percentage of ID, spleen + pancreas ([1]; 2 min p.i.): 1.1 ± 0.1 % ID
Percentage of ID, stomach ([1]; 2 min p.i.): 0.8 ± 0.2 % ID
Percentage of ID, urine ([1]; 2 min p.i.): 0.3 ± 0.1 % ID
SUV, blood ([1]; 2 min p.i.): 17.3 ± 2.5
SUV, brain ([1]; 2 min p.i.): 0.5 ± 0.1
SUV, heart ([1]; 2 min p.i.): 1.6 ± 0.4
SUV, kidneys ([1]; 2 min p.i.): 3.1 ± 0.6
SUV, liver ([1]; 2 min p.i.): 1.4 ± 0.3
SUV, lungs ([1]; 2 min p.i.): 9.3 ± 2.9
SUV, spleen ([1]; 2 min p.i.): 2.1 ± 0.7
Percentage of ID, blood ([1]; 2 min p.i.): 106.3 ± 5.2 % ID
Percentage of ID, brain ([1]; 60 min p.i.): 1.0 ± 0.1 % ID
Percentage of ID, carcass ([1]; 60 min p.i.): 22.4 ± 1.5 % ID
Percentage of ID, heart ([1]; 60 min p.i.): 0.6 ± 0.2 % ID
Percentage of ID, intestines ([1]; 60 min p.i.): 9.6 ± 2.8 % ID
Percentage of ID, kidneys ([1]; 60 min p.i.): 3.7 ± 1.1 % ID
Percentage of ID, liver ([1]; 60 min p.i.): 4.0 ± 0.2 % ID
Percentage of ID, lungs ([1]; 60 min p.i.): 1.8 ± 0.6 % ID
Percentage of ID, spleen + pancreas ([1]; 60 min p.i.): 0.9 ± 0.4 % ID
Percentage of ID, stomach ([1]; 60 min p.i.): 4.2 ± 3.1 % ID
SUV, blood ([1]; 60 min p.i.): 11.1 ± 1.2
SUV, brain ([1]; 60 min p.i.): 1.4 ± 0.2
SUV, heart ([1]; 60 min p.i.): 1.7 ± 0.5
SUV, kidneys ([1]; 60 min p.i.): 2.5 ± 0.4
SUV, liver ([1]; 60 min p.i.): 1.0 ± 0.1
SUV, lungs ([1]; 60 min p.i.): 3.8 ± 0.4
SUV, spleen ([1]; 60 min p.i.): 2.2 ± 0.8
Percentage of ID, blood ([1]; 60 min p.i.): 71.0 ± 14.5 % ID
SMILES: NS(=O)(=O)c1ccc(OCC[18F])cc1 [[^18F]-(5), 4-(2-[^18F]fluoroethoxy)benzenesulfonamide]

logD [4]: 1.19
Ki [5]: 390 nM
Ki [2]: 20 nM
SMILES: COc1ccc(C(=O)NCCc2ccc(S(N)(=O)=O)cc2)cc1 [(4)]

From article PMC3561128, “Preclinical evaluation of carbon-11 and fluorine-18 sulfonamide derivatives for in vivo radiolabeling of erythrocytes” (EJNMMI Research, 2013)
